Measurements reported in patent publication US20240158348A1, “HERBICIDAL CYCLIC AMIDES N-SUBSTITUTED WITH A HALOALKYLSULFONYLANILIDE GROUP” (FMC Corporation, priority 2021, published 2024).

Experiments:
Type in all cases: in vivo
[1] = tested on: goosegrass (Eleusine indica); assay: Test C preemergence, goosegrass; details: 0 is no effect, 100 is complete control
Outline: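 Corn, ragweed and goosegrass were sown in loam/sand and given a preemergence directed soil spray of compounds in a non-phytotoxic solvent with surfactant. Galium was sprayed postemergence at 2–10 cm height, one- to two-leaf stage. After 10 or 12 days in a greenhouse, injury was rated visually against untreated controls on a 0 (no effect) to 100 (complete control) scale.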

[2] = tested on: foxtail, giant (giant foxtail, Setaria faberi); assay: Test C postemergence, giant foxtail; details: for Foxtail, Giant plant response rating: visual injury, 0 to 100 scale (0 no effect, 100 complete control); for Plant response rating (0 to 100 scale), Foxtail, Giant: 0 is no effect, 100 is complete control
[3] = tested on: blackgrass (Alopecurus myosuroides); assay: Test C postemergence, blackgrass; details: 125 g ai/ha Postemergence; 0 is no effect, 100 is complete control

Compound | Plant response rating (0 to 100 scale), Goosegrass ([1]; 31 g ai/ha Preemergence) | Plant response rating (0 to 100 scale), Goosegrass ([1]; 125 g ai/ha Preemergence) | Foxtail, Giant plant response rating ([2]; 31 g ai/ha Postemergence) | Plant response rating (0 to 100 scale), Foxtail, Giant ([2]; 125 g ai/ha Postemergence) | Plant response rating (0 to 100 scale), Blackgrass [3] | Foxtail, Giant plant response rating ([2]; 125 g ai/ha Postemergence)
Cc1cc(C)c(N2CC/C(=N\O)C2=O)cc1NS(=O)(=O)C(F)(F)F [Compound 10, 1,1,1-trifluoro-N-[5-[3-(hydroxyimino)-2-oxo-1-pyrrolidinyl]-2,4-dimethylphenyl]methanesulfonamide] | 80 | 100 | 40 | 90 | 90 | –
C=CCO/N=C1\CCN(c2cc(NS(=O)(=O)C(F)(F)F)c(C)cc2C)C1=O [Compound 11] | 100 | 100 | 60 | 90 | 90 | –
CCO/N=C1\CCN(c2cc(NS(=O)(=O)C(F)(F)F)c(C)cc2C)C1=O [Compound 12, N-[5-[3-(ethoxyimino)-2-oxo-1-pyrrolidinyl]-2,4-dimethylphenyl]-1,1,1-trifluoromethanesulfonamide] | 90 | 100 | 90 | 90 | 100 | –
C#CCO/N=C1\CCN(c2cc(NS(=O)(=O)C(F)(F)F)c(C)cc2C)C1=O [Compound 13, N-[2,4-dimethyl-5-[2-oxo-3-[(2-propyn-1-yloxy)imino]-1-pyrrolidinyl]phenyl]-1,1,1-trifluoromethanesulfonamide] | 90 | 100 | 60 | 90 | 90 | –
Cc1cc(C)c(N2CCC(O)C2=O)cc1NS(=O)(=O)C(F)(F)F (stereo not drawn) [Compound 14] | 90 | 100 | 20 | 90 | 70 | –
COC(=O)N(c1cc(N2CCC(OC3CC3)C2=O)c(C)cc1C)S(=O)(=O)C(F)(F)F (stereo not drawn) [Compound 16] | 0 | 0 | 0 | 0 | 0 | –
Cc1cc(C)c(N(C(=O)OC(C)C)S(=O)(=O)C(F)(F)F)cc1N1CCC(OC2CC2)C1=O (stereo not drawn) [Compound 18] | 0 | 0 | 0 | 0 | 0 | –
CCOC(=O)N(c1cc(N2CCC(OC3CC3)C2=O)c(C)cc1C)S(=O)(=O)C(F)(F)F (stereo not drawn) [Compound 19] | 0 | 70 | 0 | 20 | 40 | –
Cc1cc(C)c(N2CCC(OCC3CC3)C2=O)cc1NS(=O)(=O)C(F)(F)F (stereo not drawn) [Compound 22] | 100 | 100 | 20 | 60 | 90 | –
Cc1c(NS(=O)(=O)C(F)(F)F)cc(N2CCC(OC3CCC3)C2=O)c(C)c1F (stereo not drawn) [Compound 25] | 90 | 100 | 30 | 30 | 90 | –
Cc1c(NS(=O)(=O)C(F)(F)F)cc(N2CCC(OC3CC3)C2=O)c(C)c1F (stereo not drawn) [Compound 26] | 90 | 100 | 40 | 90 | 90 | –
Cc1c(N2CCC(OC3CCC3)C2=O)cc(N(COC(=O)C(C)(C)C)S(=O)(=O)C(F)(F)F)c(C)c1F (stereo not drawn) [Compound 28] | 70 | 100 | 30 | 70 | 70 | –
Cc1cc(Cl)c(N(COC(=O)C(C)(C)C)S(=O)(=O)C(F)(F)F)cc1N1CCC(OC2CC2)C1=O (stereo not drawn) [Compound 33] | 90 | 100 | 50 | 90 | 60 | –
Cc1cc(C)c(N2CCC(OC3COC3)C2=O)cc1NS(=O)(=O)C(F)(F)F (stereo not drawn) [Compound 34] | 30 | 100 | 40 | 90 | 60 | –
Cc1c(NS(=O)(=O)C(F)(F)F)cc(N2CCCC(OC3CCC3)C2=O)c(C)c1F (stereo not drawn) [Compound 36] | 90 | 100 | 10 | 30 | 30 | –
Cc1c(N2CCCC(OC3CC3)C2=O)cc(N(COC(=O)C(C)(C)C)S(=O)(=O)C(F)(F)F)c(C)c1F (stereo not drawn) [Compound 37] | 50 | 100 | 10 | 80 | 60 | –
CC(=O)N(c1cc(N2CCC(OC3CC3)C2=O)c(C)cc1Cl)S(=O)(=O)C(F)(F)F (stereo not drawn) [Compound 38] | 100 | 100 | 50 | 90 | 70 | –

Compound | Plant response rating (0 to 100 scale), Goosegrass ([1]; 31 g ai/ha Preemergence) | Plant response rating (0 to 100 scale), Goosegrass ([1]; 125 g ai/ha Preemergence) | Foxtail, Giant plant response rating ([2]; 31 g ai/ha Postemergence) | Plant response rating (0 to 100 scale), Foxtail, Giant ([2]; 125 g ai/ha Postemergence) | Plant response rating (0 to 100 scale), Blackgrass [3] | Foxtail, Giant plant response rating ([2]; 125 g ai/ha Postemergence)
Cc1cc(C)c(N2CCC(OCC3CC3(F)F)C2=O)cc1NS(=O)(=O)C(F)(F)F (stereo not drawn) [Compound 41] | 90 | 100 | 20 | – | – | 90
Cc1cc(C)c(N2CCC(OCC3CCCO3)C2=O)cc1NS(=O)(=O)C(F)(F)F (stereo not drawn) [Compound 42] | 50 | 100 | 20 | – | – | 90
Cc1cc(C)c(N2CCC(OCC3CCC3)C2=O)cc1NS(=O)(=O)C(F)(F)F (stereo not drawn) [Compound 43] | 60 | 100 | 10 | – | – | 90
Cc1c(NS(=O)(=O)C(F)(F)F)cc(N2CCC(OC3CCC3)C2=O)c(C)c1C (stereo not drawn) [Compound 45] | 100 | 100 | 30 | – | – | 80
Cc1c(N2CCC(OC3CCC3)C2=O)cc(N(C(=O)OCC(C)C)S(=O)(=O)C(F)(F)F)c(C)c1C (stereo not drawn) [Compound 48] | 80 | 100 | 20 | – | – | 60
Cc1c(N2CCC(OC3CC3)C2=O)cc(N(COC(=O)C(C)(C)C)S(=O)(=O)C(F)(F)F)c(C)c1C (stereo not drawn) [Compound 49] | 60 | 90 | 60 | – | – | 90
Cc1c(N2CCC(OC3CCC3)C2=O)cc(N(COC(=O)C(C)(C)C)S(=O)(=O)C(F)(F)F)c(C)c1C (stereo not drawn) [Compound 51] | 0 | 90 | 0 | – | – | 40
Cc1cc(C)c(N2CCC(OCC3CCC3(F)F)C2=O)cc1NS(=O)(=O)C(F)(F)F (stereo not drawn) [Compound 52] | 80 | 100 | 0 | – | – | 50
Cc1cc(C)c(N(COC(=O)C(C)(C)C)S(=O)(=O)C(F)(F)F)cc1N1CCC(OCC2CC2)C1=O (stereo not drawn) [Compound 53] | 60 | 100 | 30 | – | – | 90
Cc1cc(C)c(N(COC(=O)C(C)(C)C)S(=O)(=O)C(F)(F)F)cc1N1CCC(OCC2CC2(F)F)C1=O (stereo not drawn) [Compound 54] | 20 | 100 | 30 | – | – | 70
Cc1cc(C)c(N(COC(=O)C(C)(C)C)S(=O)(=O)C(F)(F)F)cc1N1CCC(OCC2CC(F)(F)C2)C1=O (stereo not drawn) [Compound 55] | 10 | 100 | 30 | – | – | 70
Cc1cc(C)c(N(COC(=O)C(C)(C)C)S(=O)(=O)C(F)(F)F)cc1N1CCC(OCC2CCC2)C1=O (stereo not drawn) [Compound 56] | 10 | 90 | 10 | – | – | 40
Cc1cc(C)c(N2CCC(OCC3CCCC3)C2=O)cc1NS(=O)(=O)C(F)(F)F (stereo not drawn) [Compound 57] | 90 | 100 | 60 | – | – | 70
C#CC(C)OC1CCN(c2cc(NS(=O)(=O)C(F)(F)F)c(C)cc2C)C1=O (stereo not drawn) [Compound 58] | 100 | 100 | 60 | – | – | 90
Cc1cc(C)c(N2CCC(OCc3ccccc3)C2=O)cc1NS(=O)(=O)C(F)(F)F (stereo not drawn) [Compound 61] | 100 | 100 | 20 | – | – | 50
Cc1c(NS(=O)(=O)C(F)(F)F)cc(N2CCC(OCC3CC3)C2=O)c(C)c1F (stereo not drawn) [Compound 63] | 100 | 100 | 0 | – | – | 30
Cc1c(NS(=O)(=O)C(F)(F)F)cc(N2CCC(OCC3CCC3)C2=O)c(C)c1F (stereo not drawn) [Compound 64] | 70 | 100 | 0 | – | – | 20
